This is an account of results in ChEMBL document CHEMBL1157499, “Synthesis and biological evaluation of 1-(benzenesulfonamido)-2-[5-(N-hydroxypyridin-2(1H)-one)]acetylene regioisomers: a novel class of 5-lipoxygenase inhibitors” (Bioorg Med Chem Lett, 2008).

This assay relates to Rattus norvegicus. Put plainly: Antiinflammatory activity against carrageenan-induced paw edema in po dosed rat after 3 hrs. The assay is classed as functional. In general terms: The carrageenan paw model is a standard test of acute inflammation.

The source made the active and inactive calls. The calls are words filed in the database; no cut-off is given here.

As for `NS(=O)(=O)c1cccc(C#Cc2ccc(=O)n(O)c2)c1`, the outcome was inactive. The same measure, in the same setting: in the case of `NS(=O)(=O)c1ccc(C#Cc2ccc(=O)n(O)c2)cc1` it was “inactive”. Compound `NS(=O)(=O)c1ccccc1C#Cc1ccc(=O)n(O)c1` registered an ED50 of 86 mg/kg.

One may read the ED50 as the midpoint of the dose-response relation. High values mean a need for a large dose, low ones an effect at a small dose.
